Laboratory results: US8173133B2, “Acyl pseudodipeptides which carry a functionalized auxiliary arm” (OM Pharma, priority 1999, dated 2012)
Converted amounts (≈) assume the structure as drawn.

Test system: murine macrophage cells
Experiment: nitric oxide production by murine macrophage cells (Griess)
Assay type: cell-based, C57/BL6 mice
Conditions: for Max concentration: concentration at maximum amplitude; for EC50 conc: concentration corresponding to 50% of maximum amplitude; for Min concentration: lowest concentration inducing a significant response
From the text: Six-week old male C57/BL6 mice are killed by CO2 inhalation. The hip, femur, tibia and posterior appendage bones are removed. The bone marrow is extracted from the bone lumen by injecting Dulbecco's Modified Eagle Medium (DH medium) from the end portions which had been excised. The stem cells are washed and resuspended (approximate cell concentration 4000 cells/ml) in DH medium supplemented with 20% equine serum (SH) and 30% L929 cell supernatant. L929 is a murine fibroblast cell line the supernatant fluid of which is rich in growth factor for macrophage cells (M-CSF). The cell suspension is divided into Petri dishes which are incubated for 8 days in an incubator at 37° C. under 8% CO2 and a moisture saturated atmosphere.
After 8 days, the stem cells have differentiated into mature macrophage cells. The macrophage cells are scraped off by rapid cooling, washed and resuspended in DH medium supplemented with 5% foetal calf serum (FCS), amino acids and antibiotics. The cell density is adjusted to 700 000 cells/ml.
Products previously dissolved in DH medium supplemented with 5% FCS, amino acids and antibiotics are serially diluted directly in microtiter plates. The products are tested in triplicates and each microtiter plate comprises a negative control containing plain medium. The final volume in each well is 100 μl.
100 μl of cell suspension are added to diluted solutions of such products and the cells are incubated for 22 hours in an incubator at 37° C., under 8% CO2 and a moisture saturated atmosphere. At the end of the incubation period with the products, 100 μl of supernatant are withdrawn and the nitrite concentration is determined by running a Griess reaction.
100 μl of Griess reagent (5 mg/ml of sulfanilamide+0.5 mg/ml of N-(1-naphtylethylene diamine hydrochloride)) in 2.5% aq. phosphoric acid, are added to each well. The microtiter plates are read with a spectrophotometer at 562 nm wavelength against a reference sample at 690 nm. The nitrite concentration is proportional to nitric oxide content being formed. The nitrite content is determined based on a standard curve.
The results are given as mean value±standard deviation and plotted as a dose versus response curve.
From this dose versus response curve, 3 curve variables are computed:
Max: maximum curve amplitude and corresponding concentration
EC50: concentration corresponding to 50% of maximum amplitude
Min: lowest concentration inducing a significant proliferation corresponding to the blank±3× standard deviation value
Concentration values corresponding to EC50 and Min are determined from line segments joining different points on the curve.
If the curve has no plateau phase but an ascending configuration for the highest concentration being tested, a “>” sign is shown before “Max” and “EC50” values.

Row | Compound | nitric oxide production | Max concentration | EC50 conc | Min concentration
1 | CCCCCCCCCCCC(=O)O[C@H](CCCCCCCCCCC)CC(=O)NC(CCOP(=O)(O)O)C(=O)NCCC[C@H](COC(=O)CCCCCN)NC(=O)C[C@H](O)CCCCCCCCCCC (mixture of isomers) [OM-197-MP-AC (R/S, R), (3RS,9R)-3-[(R)-3-dodecanoyloxytetradecanoylamino]-4oxo-5-aza-9-[(R)-3-hydroxytetradecanoylamino]-decan-10-ol 1-dihydrogen-phosphate(6-aminohexanoate)] | higher proliferation response as compared to positive control | > 100 µg/mL | > 10.69 µg/mL | 1.04 µg/mL
2 | CCCCCCCCCCCC(=O)O[C@H](CCCCCCCCCCC)CC(=O)N[C@H](CC(=O)NCCCN)C(=O)NCCC[C@H](CO)NC(=O)C[C@H](O)CCCCCCCCCCC [OM-197-AP, N—[(R)-3-dodecanoyloxytetradecanoyl]-D-aspartic acid, α-N-{(4R)-5-hydroxy-4-[(R)-3-hydroxy-tetradecanoylamino]pentyl}-amide β-N-(3-aminopropyl)amide] | – | > 100 µg/mL | > 13.69 µg/mL | 1.87 µg/mL
3 | CCCCCCCCCCCC(=O)O[C@H](CCCCCCCCCCC)CC(=O)N[C@H](CC(=O)N[C@@H](CC(=O)O)C(=O)O)C(=O)NCCC[C@H](CO)NC(=O)C[C@H](O)CCCCCCCCCCC [OM-197-Asp, N—[(R)-3-dodecanoyloxytetradecanoyl]-D-aspartic acid, α-N-{(4R)-5-hydroxy-4-[(R)-3-hydroxytetradecanoylamino]-pentyl}Amide β-N-[(1S)-1,2-Dicarboxyethyl]Amide] | – | 51 µg/mL | 0.95 µg/mL (≈ 0.966 µM) | 0.086 µg/mL
4 | CCCCCCCCCCCC(=O)O[C@H](CCCCCCCCCCC)CC(=O)N[C@H](CC(=O)N[C@@H](CC(=O)O)C(=O)O)C(=O)NCCC[C@H](COC(=O)CCCCCN)NC(=O)C[C@H](O)CCCCCCCCCCC [OM-197-Asp-AC, N—[(R)-3-dodecanoyloxytetradecanoyl]-D-aspartic acid, α-N-{(4R)-5-(6-aminohexanoyloxy)-4-[(R)-3-hydroxytetradecanoyl-amino]-pentyl}amide β-N-[(1S)-1,2-dicarboxyethyl]Amide] | – | > 100 µg/mL | > 7.04 µg/mL | 2.00 µg/mL
5 | CCCCCCCCCCCC(=O)O[C@H](CCCCCCCCCCC)CC(=O)NC(CCOP(=O)(O)O)C(=O)NCCCC(COC(=O)CCCCCO)NC(=O)C[C@H](O)CCCCCCCCCCC (stereo partly drawn) [OM-197-FV8, 3-[(R)-3-dodecanoyloxytetradecanoylamino]-4-oxo-5-aza-9-[(R)-3-hydroxytetradecanoylamino]-decan-1,10-diol 1-dihydrogenphosphate 10-(6-hydroxyhexanoate)] | – | 51 µg/mL | 7.89 µg/mL (≈ 7.53 µM) | 1.45 µg/mL
6 | CCCCCCCCCCCC(=O)O[C@H](CCCCCCCCCCC)CC(=O)N[C@H](CC(=O)N[C@@H](CCCCN)C(=O)O)C(=O)NCCC[C@H](COC(=O)CCCCCN)NC(=O)C[C@H](O)CCCCCCCCCCC [OM-197-Lys-AC] | – | > 50 µg/mL | > 11.06 µg/mL | 1.46 µg/mL
7 | CCCCCCCCCCCC(=O)O[C@H](CCCCCCCCCCC)CC(=O)N[C@H](CC(=O)N[C@@H](CCCCN)C(=O)O)C(=O)NCCC[C@H](CO)NC(=O)C[C@H](O)CCCCCCCCCCC [OM-197-Lys] | – | 40 µg/mL | 2.23 µg/mL (≈ 2.24 µM) | < 0.47 µg/mL
8 | CCCCCCCCCCCC(=O)O[C@H](CCCCCCCCCCC)CC(=O)N[C@H](CC(=O)O)C(=O)NCCC[C@H](COC(=O)CCCCCN)NC(=O)C[C@H](O)CCCCCCCCCCC [OM-197-MC-AC, N—[(R)-3-dodecanoyloxytetradecanoyl]-D-aspartic acid, α-N-{(4R)-5-(6-aminohexanoyloxy)-4-[(R)-3-hydroxytetradecanoylamino]pentyl}amide] | – | 25 µg/mL | 4.91 µg/mL (≈ 5 µM) | 0.91 µg/mL
9 | CCCCCCCCCCCC(=O)O[C@H](CCCCCCCCCCC)CC(=O)N[C@H](CC(=O)O)C(=O)NCCC[C@H](COC(=O)CCCCCNC(=O)CCC(=O)O)NC(=O)C[C@H](O)CCCCCCCCCCC [OM-197-MC-AC-Succ, N—[(R)-3-dodecanoyloxytetradecanoyl]-D-aspartic acid, α-N-{(4R)-5-(6-succinylamidohexanoxyloxy)-4[(R)-3-hydroxy-tetradecanoylamino]pentyl}amide] | – | > 16 µg/mL | 0.72 µg/mL (≈ 0.666 µM) | 0.28 µg/mL
10 | CCCCCCCCCCCC(=O)O[C@H](CCCCCCCCCCC)CC(=O)N[C@H](CC(=O)O)C(=O)NCCC[C@H](COC(=O)CCCCC(O)CO)NC(=O)C[C@H](O)CCCCCCCCCCC (stereo partly drawn) [OM-197-MC-FV5, N—[(R)-3-dodecanoyloxytetradecanoylamino]-D-aspartic acid, α-N-{(4R)-5-hydroxy-4-[(R)-3-hydroxytetra-decanoylamino]-pentyl}amide 5-O-(6,7-dihydroxyheptanoate)] | – | 16 µg/mL | 2.56 µg/mL (≈ 2.53 µM) | 0.67 µg/mL
11 | CCCCCCCCCCCC(=O)O[C@H](CCCCCCCCCCC)CC(=O)N[C@H](CC(=O)O)C(=O)NCCC[C@H](COC(=O)CCCCCO)NC(=O)C[C@H](O)CCCCCCCCCCC [OM-197-MC-FV7, N—[(R)-3-dodecanoyloxytetradecanoylamino]-D-aspartic acid, α-N-{(4R)-5-hydroxy-4-[(R)-3-hydroxytetradecanoylamino]pentyl}amide 5-O-(6-hydroxyhexanoate)] | – | > 25.6 µg/mL | > 3.70 µg/mL | 0.36 µg/mL
12 | CCCCCCCCCCCC(=O)O[C@H](CCCCCCCCCCC)CC(=O)N[C@H](CC(=O)O)C(=O)NCCC[C@H](COP(=O)(O)O)NC(=O)C[C@H](O)CCCCCCCCCCC [OM-197-MC-MP, N—[(R)-3-dodecanoyloxytetradecanoyl]-D-aspartic acid, α-N-{(4R)-5-dihydroxyphosphoryloxy-4-[(R)-3-hydroxytetradecanoyl-amino]pentyl}amide] | – | 51 µg/mL | 1.18 µg/mL (≈ 1.24 µM) | 0.11 µg/mL
13 | CCCCCCCCCCCC(=O)O[C@H](CCCCCCCCCCC)CC(=O)N[C@H](CC(=O)O)C(=O)NCCC[C@H](COC(=O)CCC(=O)O)NC(=O)C[C@H](O)CCCCCCCCCCC [OM-197-MC-Succ] | – | 16 µg/mL | 0.89 µg/mL (≈ 0.919 µM) | 0.22 µg/mL
14 | CCCCCCCCCCCC(=O)O[C@H](CCCCCCCCCCC)CC(=O)N[C@@H](CCOP(=O)(O)O)C(=O)NCCC[C@H](COC(=O)CCCCCO)NC(=O)C[C@H](O)CCCCCCCCCCC [OM-197-MP-AC (S, R), (3S,9R)-3-[(R)-3-dodecanoyloxytetradecanoylamino]-4-oxo-5-aza-9-[(R)-3-hydroxytetradecanoylamino]-1,10-diol 1-dihydrogenphosphate 10-(6-hydroxyhexanoate)] | – | 40 µg/mL | 3.28 µg/mL (≈ 3.13 µM) | 0.59 µg/mL
